Experimental data as given in patent US7378409B2, “Substituted cycloalkylamine derivatives as modulators of chemokine receptor activity” (Bristol-Myers Squibb Company, priority 2003, dated 2008).

Experiment: Long-term storage stability of the isolated salt
Type: physicochemical
Conditions: TFA salt of the title compound; converted to free base for that reason
Protocol: Example 3a, Step 5: A solution of (1R,3R,4S)-3-butyl-N1-isopropyl-N1-methylcyclohexane-1,4-diamine (58 mg, 0.25 mmol) in methylene chloride (5 mL) was charged successively with HATU (113 mg, 0.29 mmol), 2-(5-(trifluoromethyl)-1H-indazol-3-ylamino)acetic acid (58 mg, 0.22 mmol), and N,N-diisopropylethylamine (0.22 mL, 1.24 mmol). The reaction was stirred for 16 h at RT, concentrated in vacuo, and diluted with EtOAc. The organic phase was washed successively with sat. NaHCO3, water, 1N HCl, water, and brine before being dried (sodium sulfate), filtered, and concentrated in vacuo. […] Accordingly, this material was dissolved in EtOAc and the organic phase was washed with sat. NaHCO3 and brine before being dried (sodium sulfate), filtered, and concentrated in vacuo to afford the free base of the title compound, N-((1S,2R,4R)-2-butyl-4-(isopropyl(methyl)amino)cyclohexyl)-2-(5-(trifluoromethyl)-1H-indazol-3-ylamino)acetamide. MS found: (M+H)^+=468.4.

CCCC[C@@H]1C[C@H](N(C)C(C)C)CC[C@@H]1NC(=O)CNc1n[nH]c2ccc(C(F)(F)F)cc12 [Example 3a, N-((1S,2R,4R)-2-butyl-4-(isopropyl(methyl)amino)cyclohexyl)-2-(5-(trifluoromethyl)-1H-indazol-3-ylamino)acetamide]
stability to long-term storage: unstable to long-term storage
